Measured values reported in US10370391B2, “Hydrogen peroxide-activable, anti-oxidant compounds and methods using same” (Beth Israel Deaconess Medical Center, Inc., priority 2014, dated 2019).

Legend:
[1] = system: nitric oxide production in LPS-treated cells; assay: Nitric oxide generation in LPS-treated cells (Griess reaction); format: cell-based; details: time and dose-dependent
Experimental: FIG. 4, comprising FIGS. 4A-4F, is a set of graphs, bar graphs and images illustrating anti-oxidant and anti-inflammatory effects of BRAP in vitro. […] The generation of ROS was monitored by flow cytometry as an indicator of DCF fluorescence. Fluorescence was analyzed in 10,000 cells with excitation at 480 nm and emission at 530 nm. FIG. 4C: Protective effect of BRAP on H2O2— stimulated adult rat cardiomyocytes. V=vehicle, *<0.05 vs. V+H2O2 (n=4). […] (n=4/group).
Nitric oxide is one of major sources of oxidative stress and a well-known pro-inflammatory mediator in the pathogenesis of inflammation (Lundberg, et al., 1997, Nature Medicine 3:30). The effects of BRAP on the generation of nitric oxide in LPS-treated cells were studied using a colorimetric assay based on the Griess reaction.

[2] = system: adult rat ventricular cardiomyocytes (ARVC); assay: MTT cytotoxicity assay, ARVC; format: cell-based; details: concentrations as high as 5 mM, 24 hours of incubation
From the text: FIG. 3, comprising FIGS. 3A-3B, is a set of bar graphs illustrating biocompatibility profiles of BRAP assessed by MTT assay in mouse macrophage (RAW264.7) cells (FIG. 3A) and ARVC (FIG. 3B).

[3] = system: mouse macrophage (RAW264.7) cells; assay: MTT cytotoxicity assay, RAW264.7; format: cell-based; details: concentrations as high as 5 mM, 24 hours of incubation
Experimental: FIG. 3, comprising FIGS. 3A-3B, is a set of bar graphs illustrating biocompatibility profiles of BRAP assessed by MTT assay in mouse macrophage (RAW264.7) cells (FIG. 3A) and ARVC (FIG. 3B). FIG. 19 is a bar graph showing the results of assessing cytotoxicity of BRAP-encapsulated PLGA microparticles against RAW264.7 cells in vitro. Cell viability was determined by the 3-(4,5-dimethylthiazil-2yl)-2,5-diphenyltetrazolium bromide (MTT) assay 24 hours after addition of BRAP-encapsulated PLGA microparticles to cells. “PB” represents BRAP-encapsulated PLGA microparticles. The percentages indicate the weight content of BRAP in the particles. Values shown represent mean±s.d. (n=4). […] 3-(4,5-Dimethylthiazil-2yl)-2,5-diphenyltetrazolium bromide (MTT) assay was performed to evaluate the cytotoxicity of BRAP. NIH 3T3 cells were cultured at a density of 1×10^5 cells/well in a 24 well plate, and RAW 264.7 cells and HEK cells were also cultured at a density of 2×10^5 cells/well in a 24 well plate. Cells were incubated for 24 hours to reach ˜80% confluency. Cells were treated with various amount of BRAP and incubated for 24 hours. […] After 10 min incubation, the absorbance at 570 nm was measured using a microplate reader (Biotek Instruments, Winooski, Vt.). The cell viability was determined by comparing the absorbance of BRAP treated cells that of control cells.

cardiac I/R injury = assay: Mouse model of cardiac I/R injury; format: in vivo
Experimental: The beneficial effects of BRAP were further investigated using a mouse model of cardiac I/R injury in vivo. After 45 minutes of ischemia, BRAP (1.5 mg/kg) or vehicle was administered i.p. at the time of reperfusion, and then daily (1.5 mg/kg/day) for 2 weeks. For cardiac functional analysis, pressure-volume (PV) loop measurement and echocardiography were performed at 2 weeks after I/R surgery.
Studies were then performed to determine whether the benefits of BRAP after I/R were associated with attenuation of oxidative stress, inflammation, and apoptosis. These mechanistic analyses were performed in heart tissues 24 hours after cardiac I/R injury. […] BRAP administration decreased TNF-α and MCP-1 expressions compared with vehicle-treated mice.
Cardiac I/R surgery was performed in 12 week-old male mice as described in Choudhury, et al., 2011, Basic Res Cardiol 106:397. Briefly, mice were anaesthetized and placed on a rodent ventilator (model 687, Harvard Respirator). After thoracotomy, the left anterior descending artery (LAD) artery was identified and ligated with a 7-0 silk suture tied around a specialized 30 G-catheter. The animal remained under anesthesia and ventilation for 45 min of ischemia, after which reperfusion was achieved by cutting the suture and re-establishing arterial perfusion. Sham operated mice underwent the same procedure without LAD occlusion.
Cardiac function was evaluated using the pressure-volume loop measurement and echocardiography 2 weeks after I/R as described in Lee, et al., 2013, Sci Rep 3:2233. Pressure-volume parameters were measured after isoflurane (2%) inhalant anesthesia using a 1.4 Fr. micro-tip pressure-volume catheter (Scisense Inc, Ontario, Canada) inserted into the right common carotid artery. The catheter was gently advanced into the left ventricle to obtain LV hemodynamic parameters. Data was recorded using a Powerlab system (ADInstruments, Colorado Springs, Colo.). Beat by beat pressure-volume parameters including heart rate (HR), stroke volume (SV), stroke work (SW) and cardiac output (CO) were measured and analyzed using CardioSoft Pro software (CardioSoft, Houston, Tex.). Transthoracic echocardiography was performed using a Vevo2100 ultra-high frequency small animal imaging system with MS400 transducer (18-38 MHz) (Visualsonics, Toronto, Canada).
For liver apoptosis assay, terminal deoxynucleotidyl transferase dUTP nick end labeling (TUNEL) staining was performed using a DeadEnd™ Fluorometric TUNEL kit (Promega, Madison, Wis.). Tissue sections were stained for nuclei (4′,6-diamidino-2-phenylindole (DAPI) staining) and apoptotic nuclei (TUNEL staining) and analyzed using a confocal laser scanning microscope. For heart tissues, TUNEL staining was performed using in situ cell death detection Kit, fluorescein (Roche Applied Science, Indianapolis, Ind.). To distinguish cardiomyocyte from non-cardiomyocyte nuclei, triple stain for nuclei (DAPI staining), apoptotic nuclei (TUNEL staining), and cardiomyocytes (α-Actinin staining) was used, and the stained sections were analyzed using confocal microscopy. A minimum of ˜10 high power fields with ˜2000 nuclei/field were counted for each sample.
The activity of caspase-3 was determined with colorimetric assay kit (R&D Systems, Minneapolis, Minn.) as described in Choudhury, et al., 2011, Basic Res Cardiol 106:397; Bae, et al., 2010, Am J Physiol Heart Circ Physiol 299:H1374. Briefly, protein samples were added to substrates of Acetyl-Asp-Glu-Val-Asp-p-nitroanilide. The enzyme-catalyzed release of p-nitroanilide was measured at 405 nm. For PARP activity assay, activity was measured at 450 nm by incorporation of biotinylated poly (ADP-ribose) onto histone-coated proteins in plate using colorimetric assay kit (R&D Systems, Minneapolis, Minn., USA).
Heart tissues were collected for molecular analyses were performed in Bae, et al., 2010, Am J Physiol Heart Circ Physiol 299:H1374. […]

[4] = 1.5 mg/kg i.p. at reperfusion then daily for 2 weeks
[5] = 24 hours after I/R, compared with vehicle-treated mice

CC1(CO)COB(c2ccc(CO)cc2)OC1 [BRAP, (4-(5-(hydroxymethyl)-5-methyl-1,3,2-dioxaborinan-2-yl)phenyl)methanol]
inhibition of nitric oxide production [1]: inhibitory effects | cytotoxicity (MTT) [2]: no significant cytotoxicity | cytotoxicity (MTT) [3]: no significant cytotoxicity | I/R-induced cardiac dysfunction by PV loop analysis (CO, SW, EF) (cardiac I/R injury; [4]): significantly attenuated | I/R-induced cardiac dysfunction by echocardiography (FS) (cardiac I/R injury; [4]): significantly attenuated | TUNEL-positive cardiomyocytes (apoptosis) (cardiac I/R injury; 24 hours after I/R): effectively inhibited | caspase-3 activation in heart (cardiac I/R injury; 24 hours after I/R): effectively reduced | MCP-1 mRNA expression in heart (cardiac I/R injury; [5]): decreased | TNF-α mRNA expression in heart (cardiac I/R injury; [5]): decreased | DHE staining (ROS generation) in heart (cardiac I/R injury; heart tissue 24 hours after I/R): significantly decreased
